{"source": "paper PMC12916826", "about": "(Nature Communications, 2026)", "key": {"[1]": {"conditions": "cited from earlier work"}, "[2]": {"conditions": "cited from earlier work", "remark": "listed apart in the source"}, "[3]": {"conditions": "cited from earlier work", "remark": "listed apart in the source"}, "[4]": {"conditions": "cited from earlier work", "remark": "listed apart in the source"}, "mice with stroke": {"tested_on": "mice with stroke", "conditions": "cited from earlier work"}, "hGAT3 [5]": {"target": "T1, hGAT3 (Homo sapiens, UniProt P48066)", "T1 sequence (P48066 1-632)": "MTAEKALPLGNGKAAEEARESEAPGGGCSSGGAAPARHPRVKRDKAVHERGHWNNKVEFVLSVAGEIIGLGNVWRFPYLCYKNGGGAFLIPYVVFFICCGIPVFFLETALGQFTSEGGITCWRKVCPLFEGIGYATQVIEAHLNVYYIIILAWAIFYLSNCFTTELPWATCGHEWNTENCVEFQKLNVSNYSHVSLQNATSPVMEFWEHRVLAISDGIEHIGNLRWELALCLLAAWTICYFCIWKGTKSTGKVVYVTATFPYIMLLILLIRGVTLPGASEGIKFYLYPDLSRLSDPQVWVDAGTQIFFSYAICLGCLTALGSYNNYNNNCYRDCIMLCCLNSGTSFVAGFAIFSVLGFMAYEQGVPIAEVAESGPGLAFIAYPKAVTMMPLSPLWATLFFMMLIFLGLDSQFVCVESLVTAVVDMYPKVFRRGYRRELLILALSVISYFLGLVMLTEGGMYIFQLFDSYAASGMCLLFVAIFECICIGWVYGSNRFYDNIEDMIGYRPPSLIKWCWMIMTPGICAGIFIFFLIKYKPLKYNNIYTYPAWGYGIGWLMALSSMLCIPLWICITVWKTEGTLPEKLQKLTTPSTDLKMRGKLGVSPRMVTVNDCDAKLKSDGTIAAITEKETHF", "experiment": "[3H]GABA competition uptake assay, wild-type hGAT3 in HEK293T cells", "assay_type": "cell-based"}, "hGAT3-C316S": {"target": "T2, hGAT3-C316S (Homo sapiens, UniProt P48066, C316S)", "T2 sequence (P48066 1-632 C316S)": "T1 sequence (P48066 1-632) with C316S", "experiment": "[3H]GABA competition uptake assay, hGAT3-C316S mutant in HEK293T cells", "assay_type": "cell-based"}, "hGAT3 [6]": {"target": "T1, hGAT3", "experiment": "[3H]GABA uptake kinetic", "assay_type": "cell-based", "conditions": "with and without preincubation"}, "hGAT3 [7]": {"target": "T1, hGAT3", "experiment": "FLIPR membrane potential", "assay_type": "cell-based"}, "hGAT3-eGFP": {"target": "T3, hGAT3-eGFP (Homo sapiens, UniProt P48066)", "T3 sequence (P48066 1-632)": "T1 sequence (P48066 1-632)", "experiment": "Confocal microscopy of membrane-localized hGAT3-eGFP fluorescence", "assay_type": "cell-based", "conditions": "100 µM SR-THAP; 1 h incubation; versus buffer"}}, "note": "Substitutions are numbered along the chain they refer to. Where two headings read alike, the source gives them in different places."}
{"molecule": "COc1ccc(C(OCCN2CCC[C@H](C(=O)O)C2)(c2ccc(OC)cc2)c2ccc(OC)cc2)cc1", "note": "[(S)-SNAP-5114, (S)−1-{2-[Tris(4-methoxyphenyl)methoxy]ethyl}piperidine-3-carboxylic acid]", "values": [{"measurement": "solubility", "setting": "[1]", "result": "limited"}, {"measurement": "brain uptake after systemic administration", "setting": "[2]", "result": "limited"}, {"measurement": "cellular toxicity", "setting": "[3]", "result": "cellular toxicity"}, {"measurement": "chemical stability", "setting": "[4]", "result": "poor"}, {"measurement": "in vivo toxicity", "setting": "mice with stroke", "result": "severe in vivo toxicity"}]}
{"molecule": "NCCCC(=O)O", "note": "[GABA, γ-Aminobutyric acid, reference compound]", "values": [{"measurement": "IC50", "setting": "hGAT3 [5]", "result": 6.9, "unit": "µM"}, {"measurement": "IC50", "setting": "hGAT3-C316S", "result": 4.2, "unit": "µM"}]}
{"molecule": "COc1ccc(C(/C=C/CN2CCC[C@@H]2[C@H](O)C(=O)O)(c2ccc(OC)cc2)c2ccc(OC)cc2)cc1", "note": "[SR-THAP, (2S, 2′R)−2-hydroxy-2-(1-((E)−4,4,4-tris(4-methoxyphenyl)but-2-en-1-yl)pyrrolidin-2′-yl)acetic acid]", "values": [{"measurement": "mode of inhibition ([3H]GABA uptake kinetics)", "setting": "hGAT3 [6]", "result": "non-competitive"}, {"measurement": "time to equilibrium between extracellular and cytosolic compound", "setting": "hGAT3 [5]; from preincubation time course", "result": "≤ 15", "unit": "min"}, {"measurement": "IC50", "setting": "hGAT3 [5]; read-out: IC50, inhibition of [3H]GABA uptake by hGAT3, 120 min preincubation (with preincubation), HEK293T cells", "result": 4.9, "unit": "µM"}, {"measurement": "increase in potency after 120-min preincubation", "setting": "hGAT3 [5]; versus without preincubation", "result": "five-fold"}, {"measurement": "IC50", "setting": "hGAT3-C316S; read-out: IC50, inhibition of [3H]GABA uptake by hGAT3-C316S, 120 min preincubation", "result": 10.6, "unit": "µM"}, {"measurement": "substrate-like response / transport in FMP assay", "setting": "hGAT3 [7]; 50 µM GABA, 20 µM SR-THAP, compared with buffer", "result": "no substrate-like response"}, {"measurement": "mode of inhibition (FMP Michaelis-Menten kinetics)", "setting": "hGAT3 [7]; absence of preincubation", "result": "non-competitive"}, {"measurement": "surface expression of hGAT3 (membrane-localized eGFP fluorescence)", "setting": "hGAT3-eGFP", "result": "No difference"}]}
